The test system of experiment [1] is U87 glioblastoma cells. Put plainly: Comparison of Example 3 and PTC-209 in U87 glioblastoma cells (cell viability). It counts as cell-based. The conditions noted are these: 72 hours. From the text: BMI-1 inhibitors were developed by the Molecular Design and Synthesis laboratory, Rutgers Translational Sciences at Rutgers University, NJ, USA. […] (Generic name is PTC-209) was characterized among a screen for post-transcriptional inhibitors of BMI-1. Zebrafish embryo toxicology assays were used to select RU-A compounds with no embryonic toxicity in vivo (a surrogate assay for toxic effects on normal stem cells). […] Cells were counted using Beckman Coulter Vi-CELL Cell Viability Analyzer, and cell viability was confirmed by CellTiter-Glo Luminescent Cell Viability Assay (Promega, Madison, Wis., USA) according to standard protocols and analyzed with a Victor 2 plate reader (Wallac, Turku, Finland).

The subject of experiment [2] is BMI-1 and ubiquitinated histone H2A in primary glioblastoma cells. Put plainly: Modulation / dynamics of BMI-1 and downstream targets in GBM cells (Western blotting). The class given is cell-based, human. How it is done:
Different GBM cells were treated with DMSO or different concentrations of the B compounds for 72 hours. Cells were lysed in Cell Lysis Buffer (Cell Signaling, #9803) supplemented with Protease Inhibitor Cocktail (Sigma, #P8340), spun down for 30 minutes at 4° C., after which the supernatant was collected at every time point indicated. Western blotting analysis was performed on all samples as described above. BMI-1 loss started at 6-12 h, coinciding with an upper shift and hyper-phosphorylation of BMI-1 at 12-24 h and complete depletion at 72 h.
To study the compound dynamic activity against GBM spheres, GBMs were tested with exemplary compounds. Different GBM cells were treated with DMSO or different concentrations of the inhibitors for 72 hours. Cells were lysed in Cell Lysis Buffer (Cell Signaling, #9803) supplemented with Protease Inhibitor Cocktail (Sigma, #P8340), spun down for 30 minutes at 4° C., after which the supernatant was collected at every time point indicated. Western blotting analysis was performed on all samples as described above. […] BMI-1 loss started at 6-12 h, coinciding with an upper shift and hyper-phosphorylation of BMI-1 at 12-24 h and complete depletion at 72 h. […] This is expected since BMI-1 is known to suppress p21. BMI-1 inhibition could be reversed using phosphatase treatment, moreover, when proteasomal inhibitor is added to treated cells after 24 h, BMI-1 is locked in the phosphorylated state, therefore showing that the phosphorylation event precedes BMI-1 degradation. The phosphorylation was independent of p38 kinase activation, as when we added […], the p38 inhibitor to the cultured cells upon treatment with the BMI-1 inhibitor, the combined treatment could not reverse the effects of RU-A15 on BMI-1 inhibition.

The test system of experiment [3] is BMI-1 and αENaC mRNA. The experiment can be described thus: mRNA expression of BMI-1 and αENaC on concomitant treatment with cyclohexamide. It counts as cell-based. The note with it: RU-A15 100 nM, RU-A16 200 nM, concomitant with CHX. Here is the method:
Next, to test if Examples 3 and 4 are selective for BMI-1 RNA, cells were concomitantly treated with RU-A15/16 (100 nM, 200 nM, respectively) and cyclohexamide (CHX), a general translational inhibitor, and analyzed mRNA expression of BMI-1 and the CHX-specific target epithelial sodium channel (αENaC).

Experiment [4] relates to BMI-1 5'UTR. Put plainly: Luciferase plasmid containing the BMI-1 5'UTR with or without binding pocket. It counts as cell-based. How it is done: Since translation initiation is dependent on RNA folding, the 3D folding of the BMI-1 5′UTR was examined. To identify sequences that fold into a target minimum and maximum free energy (MFE) secondary structure, inverse RNA folding of the BMI-1 5′UTR was performed using the mFold server. A highly probable, probability annotated group of secondary structures were identified, starting with the MFE, centroid energy structures and including fourteen other probabilities. […] In a luciferase plasmid containing the BMI-1 5′UTR, the sequences of the pocket region that contains the potential binding site was removed by cutting with compatible restriction enzymes and re-ligating the plasmid. The luciferase activity was examined with the luc plasmids or without the binding pocket upon treatment with the inhibitors. […] Thus, RU-A15/A16 engages with the BMI-1 UTR regulatory mechanisms.

For experiment [5], the system named is glioblastoma cancer cell line. Put plainly: MTT viability assay with glioblastoma cancer cell line (Test A). It counts as cell-based, human. The note with it: for EC50: Homo sapiens, 72 hours. From the text:
To generate primary patient-derived GBM models for testing small molecule inhibitors, fresh primary tissues were received from patients undergoing surgical resection of WHO grade IV gliomas at Robert Wood Johnson University Hospital (RWJUH) under an approved IRB protocol. De-identified primary human GBM samples were delivered to the laboratory. Cells were obtained through mechanical dissociation of the tumor tissue using a blade and plated in DMEM/F12 medium (Gibco) in the presence of B-27 Supplement (Gibco, #17504-044), 20 ng/ml of human recombinant EGF (Gibco, #PHG0311L) and human recombinant FGF (Peprotech, #AF-100-18B). The following day, the culture was collected, incubated with Accutase (Gibco, #A11105-01) at 37° C. and passed through a 26G×⅜ needle (BD Precision Glide, #305110) to obtain a single cell suspension and re-plated in the same supplemented medium. Cells were cultured at low (5-6) passages in serum-free sphere 3D culture with mitogens that preserve the clonogenic stemness phenotype. […] different primary GBM cells (GBM #46, GBM #50, and GBM #76) were tested for cell viability after treatment with the inhibitors. Cell viability was measured using MTT assay. Briefly, one thousand cells per well were seeded in 96-well plates and exposed to drug in a total of 200 uL media. After 72 hours, 50 uL of stock concentration of 2.5 mg/mL 3-(4,5-dimethylthiazol-2-yl)-2,5-diphenyltetrazolium bromide (MTT) (Sigma, #M2128) dissolved in PBS was added to wells and incubated at 37° C. for 4 hours; read in a […] plate reader at 570 nm and compared to DMSO and untreated cells. The IC50 (defined as the concentration at which 50% of the cells were viable) was determined from the curve.
Accordingly, compounds of the invention may be useful as therapeutic agents for the treatment of cancer.
To generate primary patient-derived GBM models for testing small molecule inhibitors, fresh primary tissues were received from patients undergoing surgical resection of WHO grade IV gliomas at Robert Wood Johnson University Hospital (RWJUH) under an approved RB protocol. De-identified primary human GBM samples were delivered to the laboratory. Cells were obtained through mechanical dissociation of the tumor tissue using a blade and plated in DMEM/F12 medium (Gibco) in the presence of B-27 Supplement (Gibco, #17504-044), 20 ng/ml of human recombinant EGF (Gibco, #PHG0311L) and human recombinant FGF (Peprotech, #AF-100-18B). […] Cell viability was measured using MTT assay. […] After 72 hours, 50 uL of stock concentration of 2.5 mg/mL 3-(4,5-dimethylthiazol-2-yl)-2,5-diphenyltetrazolium bromide (MTT) (Sigma, #M2128) dissolved in PBS was added to wells and incubated at 37° C. for 4 hours; read in a […] plate reader at 570 nm and compared to DMSO and untreated cells. […]

Setting [6] is: primary glioblastoma cells, Western blotting.

Molecules are shown by their SMILES. Where a name gives a salt, the structure may show the parent alone.

As for `COc1cc(Br)c(Nc2nc(-c3c(C)nc4ncccn34)cs2)c(Br)c1` [PTC-209, reference compound], half-maximal inhibition in experiment [1] (IC50) was put at 10 µM.
For `Cc1nc2ccccn2c1-c1csc(Nc2ccc3c(c2)OCO3)n1` [Example 4, N-(benzo[d][1,3]dioxol-5-yl)-4-(2-methylimidazo[1,2-a]pyridin-3-yl)thiazol-2-amine hydrobromide], the “CDK inhibitor p21” value in experiment [2] (GBM#46 and #50) is given as “induced upregulation of the CDK inhibitor p21”. In addition, in experiment [2] (setting [6]), the BMI-1 protein levels entry is listed as “inhibit BMI-1”, the “WT p53 levels” value was “increase WT p53 levels” and the “ubiquitin H2A” value is “inhibit ubiquitin H2A”. Besides, in experiment [3], the “BMI-1 mRNA expression” value is on record as “did not inhibit” and the “αENaC mRNA expression” value was “did not inhibit”. In addition, the “normalized luc, BMI-1 5'UTR with intact binding pocket” value in experiment [4] (intact minor groove potential binding pocket) is “significantly reduced normalized luc”. In addition, in experiment [4] (pocket sequences removed), the “normalized luc, binding pocket sequences removed” value was “not when the pocket sequences were removed”.
Regarding `Cc1c(-c2csc(Nc3ccc(N(C)C)cc3)n2)nc2ccccn12` [Example B4, N^1,N^1-dimethyl-N^4-(4-(3-methylimidazo[1,2-a]pyridin-2-yl)thiazol-2-yl)benzene-1,4-diamine], in experiment [5] (cell marked (EC80) in the EC50 column), the EC80 was 20 (EC80) μM.
`COc1ccc(Nc2nc(-c3nc4ccccn4c3C)cs2)cc1` [Example B3, N-(4-methoxyphenyl)-4-(3-methylimidazo[1,2-a]pyridin-2-yl)thiazol-2-amine] gave a half-maximal effective concentration (EC50) in experiment [5] of 20 µM. This lies in the double-digit micromolar range.
Take `C[C@@H]1C[C@@H]([C@H](O)CC2CC(=O)NC(=O)C2)C(=O)[C@@H](C)C1` [CHX, cyclohexamide, reference compound]: in experiment [3], the “BMI-1 mRNA expression” value is “lowered mRNA levels” and the “αENaC mRNA expression” value is “lowered mRNA levels”.
As for `Cc1c(-c2csc(Nc3ccc(N(C)C)cc3)n2)nc2ncccn12` [Example B2, N^1,N^1-dimethyl-N^4-(4-(3-methylimidazo[1,2-a]pyrimidin-2-yl)thiazol-2-yl)benzene-1,4-diamine], the “modulation of ubiquitinated histone H2A (Test B)” value in experiment [2] (GBM cells, B compounds, 72 hours) is “modulation of downstream target ubiquitinated histone H2A”. The molecule further came in with an EC50 in experiment [5] of 1 µM.

These data come from patent US10875861B1, “Therapeutic compounds” (Rutgers, The State University of New Jersey, priority 2017, dated 2020).
